Laboratory results from US6656694B2, “Method for identifying a ligand for a biological substrate” (Theravance, Inc., priority 2001, dated 2003).

Key:
[1] = biological target: T1, human cloned muscarinic receptor (M2), second binding site (Homo sapiens, UniProt P08172); assay: Screening of candidate compounds: effect on 3H-NMS binding in the presence of multibinding Compound A; settings: candidate 500 nM; Compound A 200 nM; 3H-NMS 10 nM; PBS pH 7.4; CHO membranes; 1 hour at 37° C.; B and C relative to each other
T1 sequence (P08172 1-466): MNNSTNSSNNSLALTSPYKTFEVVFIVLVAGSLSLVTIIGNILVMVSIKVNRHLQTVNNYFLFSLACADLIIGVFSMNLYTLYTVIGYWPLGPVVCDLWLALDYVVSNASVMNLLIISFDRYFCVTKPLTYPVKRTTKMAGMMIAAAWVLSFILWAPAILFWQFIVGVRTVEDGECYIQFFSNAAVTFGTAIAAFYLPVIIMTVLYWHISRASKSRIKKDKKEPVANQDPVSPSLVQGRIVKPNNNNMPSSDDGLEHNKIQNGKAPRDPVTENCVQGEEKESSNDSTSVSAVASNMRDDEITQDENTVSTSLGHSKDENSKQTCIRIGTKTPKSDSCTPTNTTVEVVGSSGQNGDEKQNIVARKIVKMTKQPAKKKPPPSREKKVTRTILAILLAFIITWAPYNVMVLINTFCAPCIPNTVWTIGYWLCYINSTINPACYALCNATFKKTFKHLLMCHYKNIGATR
Description: Into each well in a 96 well place, the following are added:
a) Compound A, such that the final concentration in the well is 200 nM (10 times the Kd of Compound A) in phosphate buffered saline at pH 7.4;
b) tritiated N-methyl scopalamine (^3H-NMS), such that the final concentration in each well is 10 nM (0.5 times the Kd of ^3H-NMS);
c) a candidate compound at a final concentration of 500 nM, the candidate compound being selected from amines including Compound B and Compound C (which are commercially available); [drawing 5]
(§1) d) membrane containing human cloned muscarinic receptor (prepared by expressing M2 coding plasmid in CHO cells using well-known procedures and reagents).
(§2) The 96 well plate is then incubated for 1 hour at 37° C. After incubation, the membranes are filtered to separate bound from unbound ^3H-NMS. Scintillant is then added, and the plate is placed in a counter to measure the radioactivity in each well.
The amount of radioactivity determined for each well is then compared to a pre-determined amount of radioactivity measured using the above procedure in the absence of a candidate compound. […]

[2] = biological target: T2, human cloned muscarinic receptor (M2) (Homo sapiens, UniProt P08172); assay: Binding of Compound D to the receptor measured using 3H-NMS; settings: stated more potent than Compound A
T2 sequence (P08172 1-466): T1 sequence (P08172 1-466)
Description: as §1, §2
The binding of Compound D to the receptor is then measured using ^3H-NMS.

binding to the receptor (radioactivity of bound 3H-NMS observed) [1]	Kd [2]	Compound
bind weakly		O=C(Nc1ccc2ccccc2c1)C1CC(O)CN1 (stereo not drawn) [Compound B]
bind strongly		CNC1CCN(Cc2c(OC)cccc2OC)CC1 [Compound C]
	2 nM	COc1cccc(OC)c1CN1CCC(N(C)CCCCCCCN2CCC(OC(=O)Nc3ccccc3-c3ccccc3)CC2)CC1 [Compound D]
